From US20250388553A1 (Incyte Corporation, priority 2018, published 2025)
Structures can show the parent of a compound that is named as a salt. Where two headings read alike, the source gives them in different places.

Legend:
[1] = molecular target: PI3Kγ (p110γ) Recombinant Human Protein (Homo sapiens (Human), UniProt P48736); test: PI3K-γ scintillation proximity assay; assay type: biochemical
Description: Example B. PI3K-γ Scintillation Proximity Assay
(§1) Materials: [γ-^33P]ATP (10 mCi/mL) and Wheat Germ Agglutinin (WGA) YSi SPA Scintillation Beads was purchased from Perkin Elmer (Waltham, MA). Lipid kinase substrate, D-myo-Phosphatidylinositol 4,5-bisphosphate (PtdIns(4,5)P2)D (+)-sn-1,2-di-O-octanoylglyceryl, 3-O-phospho linked (PIP2), CAS 204858-53-7, was purchased from Echelon Biosciences (Salt Lake City, UT). PI3Kγ (p110γ) Recombinant Human Protein was purchased from Life technology (Grand Island, NY). ATP, MgCl2, DTT, EDTA, MOPS and CHAPS were purchased from Sigma Aldrich (St. Louis, MO).
(§2) The kinase reaction was conducted in polystyrene 384-well Greiner Bio-one white plate from Thermo Fisher Scientific in a final volume of 25 L. Inhibitors were first diluted serially in DMSO and added to the plate wells before the addition of other reaction components. The final concentration of DMSO in the assay was 2%. The PI3Kγ assay was carried out at room temperature in 20 mM MOPS, pH 6.7, 10 mM MgCl2, 5 mM DTT and CHAPS 0.03%. Reactions were initiated by the addition of ATP, the final reaction mixture consisted of 20 µM […], 0.5 μCi [γ-^33P]ATP, 13 nM PI3Kγ. Reactions were incubated for 120 min and terminated by the addition of 40 μL SPA beads suspended in quench buffer: 163 mM potassium phosphate pH 7.8, 20% glycerol, 25 mM EDTA. The final concentration of SPA beads is 1.0 mg/mL. After the plate sealing, plates were shaken overnight at room temperature and centrifuged at 1500 rpm for 10 min, the radioactivity of the product was determined by scintillation counting on Topcount (Perkin-Elmer). IC50 determination was performed by fitting the curve of percent of the solvent control activity versus the log of the inhibitor concentration using the GraphPad Prism 6.0 software.
(§3) The compounds of the Examples were tested in the assays described in Examples A, B and C and found to have the IC50s are shown in Tables A1, A2, A3 and A4.

[2] = molecular target: PI3Kδ (p1106/p85a) Recombinant Human Protein (Homo sapiens (Human), UniProt O00329); test: PI3Kδ scintillation proximity assay; assay type: biochemical
Chain of PI3Kδ (p1106/p85a) Recombinant Human Protein (O00329 whole entry): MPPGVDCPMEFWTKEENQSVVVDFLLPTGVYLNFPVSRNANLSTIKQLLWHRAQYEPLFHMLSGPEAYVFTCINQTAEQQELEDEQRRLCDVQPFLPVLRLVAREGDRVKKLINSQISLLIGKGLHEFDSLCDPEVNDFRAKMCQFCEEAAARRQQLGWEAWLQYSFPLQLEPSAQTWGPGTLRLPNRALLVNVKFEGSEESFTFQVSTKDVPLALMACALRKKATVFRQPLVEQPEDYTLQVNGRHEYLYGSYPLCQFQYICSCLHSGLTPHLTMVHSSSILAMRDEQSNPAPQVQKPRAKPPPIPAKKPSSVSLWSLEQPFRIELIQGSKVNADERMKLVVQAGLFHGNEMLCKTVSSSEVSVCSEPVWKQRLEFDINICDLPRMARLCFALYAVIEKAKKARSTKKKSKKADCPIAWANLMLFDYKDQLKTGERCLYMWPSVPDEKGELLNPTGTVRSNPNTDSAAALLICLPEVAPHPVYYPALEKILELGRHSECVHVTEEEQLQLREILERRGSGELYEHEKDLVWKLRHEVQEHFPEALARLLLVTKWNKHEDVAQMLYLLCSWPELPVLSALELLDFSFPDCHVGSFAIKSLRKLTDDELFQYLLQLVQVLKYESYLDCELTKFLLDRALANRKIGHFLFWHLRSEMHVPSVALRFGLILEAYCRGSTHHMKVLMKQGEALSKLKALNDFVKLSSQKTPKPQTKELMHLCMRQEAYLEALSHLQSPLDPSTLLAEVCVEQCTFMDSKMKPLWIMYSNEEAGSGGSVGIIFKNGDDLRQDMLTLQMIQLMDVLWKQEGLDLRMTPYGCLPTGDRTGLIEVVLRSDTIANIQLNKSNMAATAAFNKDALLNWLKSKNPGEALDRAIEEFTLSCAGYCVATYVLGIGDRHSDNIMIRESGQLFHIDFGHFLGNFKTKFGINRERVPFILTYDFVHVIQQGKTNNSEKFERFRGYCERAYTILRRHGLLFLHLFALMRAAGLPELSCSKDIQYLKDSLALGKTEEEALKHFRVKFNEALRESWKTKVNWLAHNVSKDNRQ
Chain of PI3Kδ (p1106/p85a) Recombinant Human Protein (P27986 whole entry partner): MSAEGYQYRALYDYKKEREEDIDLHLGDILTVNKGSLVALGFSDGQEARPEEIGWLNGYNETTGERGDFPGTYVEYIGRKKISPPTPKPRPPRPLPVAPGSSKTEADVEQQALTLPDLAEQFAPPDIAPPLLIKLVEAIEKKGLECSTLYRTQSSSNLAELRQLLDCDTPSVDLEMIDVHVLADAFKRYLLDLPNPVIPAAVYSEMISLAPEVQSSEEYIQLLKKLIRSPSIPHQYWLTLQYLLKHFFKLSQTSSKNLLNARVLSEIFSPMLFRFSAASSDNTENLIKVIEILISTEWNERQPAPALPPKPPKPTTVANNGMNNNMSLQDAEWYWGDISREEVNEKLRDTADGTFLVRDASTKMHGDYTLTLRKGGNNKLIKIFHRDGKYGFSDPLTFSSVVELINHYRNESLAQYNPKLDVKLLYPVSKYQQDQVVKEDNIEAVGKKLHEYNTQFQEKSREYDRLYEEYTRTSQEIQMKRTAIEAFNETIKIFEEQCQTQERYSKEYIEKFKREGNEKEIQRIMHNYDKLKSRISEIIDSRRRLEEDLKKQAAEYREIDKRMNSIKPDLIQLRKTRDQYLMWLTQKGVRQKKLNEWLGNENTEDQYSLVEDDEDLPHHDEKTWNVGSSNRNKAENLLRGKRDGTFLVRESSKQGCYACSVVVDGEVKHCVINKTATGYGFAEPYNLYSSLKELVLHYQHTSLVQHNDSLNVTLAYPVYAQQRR
Description: Example C. PI3Kδ Scintillation Proximity Assay
as §1, with “PI3Kδ (p1106/p85a)” for “PI3Kγ (p110γ)”, “Eurofins (St Charles, MO).” for “Life technology (Grand Island, NY).”
as §2, with “25 μL.” for “25 L.”, “The PI3Kδ” for “The PI3Kγ”, “[γ-^33P]ATP, 3.4” for “[γ-^33P]ATP, 13”, “nM PI3Kδ.” for “nM PI3Kγ.”, “Topcount (PerkinElmer).” for “Topcount (Perkin-Elmer).”
as §3

[3] = Table A2, scintillation proximity assay, recombinant human p110γ
[4] = Table A2, scintillation proximity assay, recombinant human PI3Kδ
[5] = Table A3, scintillation proximity assay, recombinant human p110γ
[6] = Table A3, scintillation proximity assay, recombinant human PI3Kδ
[7] = Table A1, scintillation proximity assay, recombinant human p110γ
[8] = Table A1, scintillation proximity assay, recombinant human PI3Kδ

Chain of PI3Kγ (p110γ) Recombinant Human Protein (P48736 whole entry): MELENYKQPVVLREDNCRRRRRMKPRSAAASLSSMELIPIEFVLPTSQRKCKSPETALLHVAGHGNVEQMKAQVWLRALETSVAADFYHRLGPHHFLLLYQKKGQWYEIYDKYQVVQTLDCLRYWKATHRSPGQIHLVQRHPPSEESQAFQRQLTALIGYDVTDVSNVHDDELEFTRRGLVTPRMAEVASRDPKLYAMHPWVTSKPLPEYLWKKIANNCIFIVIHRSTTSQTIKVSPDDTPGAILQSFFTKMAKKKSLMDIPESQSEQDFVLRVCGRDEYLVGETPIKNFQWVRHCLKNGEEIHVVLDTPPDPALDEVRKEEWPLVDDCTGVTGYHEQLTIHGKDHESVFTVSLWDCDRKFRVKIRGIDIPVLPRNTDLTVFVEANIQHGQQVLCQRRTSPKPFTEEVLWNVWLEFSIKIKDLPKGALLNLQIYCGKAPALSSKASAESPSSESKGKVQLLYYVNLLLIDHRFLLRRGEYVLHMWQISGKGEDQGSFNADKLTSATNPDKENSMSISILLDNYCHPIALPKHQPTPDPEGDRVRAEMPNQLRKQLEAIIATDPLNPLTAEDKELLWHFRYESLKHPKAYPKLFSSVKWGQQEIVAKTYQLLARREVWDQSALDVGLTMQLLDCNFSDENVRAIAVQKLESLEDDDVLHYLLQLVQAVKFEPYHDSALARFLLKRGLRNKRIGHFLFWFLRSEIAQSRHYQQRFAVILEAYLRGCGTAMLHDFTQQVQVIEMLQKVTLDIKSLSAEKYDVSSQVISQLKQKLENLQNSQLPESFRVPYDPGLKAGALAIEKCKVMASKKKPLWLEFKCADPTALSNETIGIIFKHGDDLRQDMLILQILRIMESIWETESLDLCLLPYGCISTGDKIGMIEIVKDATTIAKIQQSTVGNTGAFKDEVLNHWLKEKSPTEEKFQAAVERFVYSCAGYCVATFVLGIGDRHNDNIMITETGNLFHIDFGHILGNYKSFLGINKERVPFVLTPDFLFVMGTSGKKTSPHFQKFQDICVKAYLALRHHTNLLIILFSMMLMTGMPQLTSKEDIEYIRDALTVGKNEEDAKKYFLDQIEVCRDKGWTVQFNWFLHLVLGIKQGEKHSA

SMILES | IC50 [1, 3] [µM] | IC50 [2, 4] [µM] | IC50 [1, 5] [µM] | IC50 [2, 6] [µM] | also measured
Cc1ccc(C(O)(C(N)=O)C(F)(F)F)cc1-c1cnc(N)c(C#CC2(C)CCOCC2)n1 (stereo not drawn) [Example 64, 2-(3-(5-amino-6-((4-methyltetrahydro-2H-pyran-4-yl)ethynyl)pyrazin-2-yl)-4-methylphenyl)-3,3,3-trifluoro-2-hydroxypropanamide] | < 0.1 | < 0.1 |  |  | 
Cc1ccc(C(O)(C(N)=O)C(F)(F)F)cc1-c1cnc(N)c(C(=O)NC2CC3CCC2O3)n1 (single isomer, unassigned) [Example 30, 3-amino-6-(5-(3-amino-1,1,1-trifluoro-2-hydroxy-3-oxopropan-2-yl)-2-methylphenyl)-N-(7-oxabicyclo[2.2.1]heptan-2-yl)pyrazine-2-carboxamide] |  |  |  |  | IC50 [1, 7]: < 0.1 µM; IC50 [2, 8]: < 0.1 µM
Cc1ccc(C(O)(C(N)=O)C(F)(F)F)cc1-c1cnc(N)c(C(=O)N[C@@H](C)CC#N)n1 (stereo partly drawn) [Example 8, 3-amino-6-(5-(3-amino-1,1,1-trifluoro-2-hydroxy-3-oxopropan-2-yl)-2-methylphenyl)-N-((S)-1-cyanopropan-2-yl)pyrazine-2-carboxamide trifluoroacetate] |  |  |  |  | IC50 [1, 7]: < 0.1 µM; IC50 [2, 8]: < 0.1 µM
Cc1ccc(C(O)(C(N)=O)C(F)(F)F)cc1-c1cnc(N)c(C#Cc2ccccn2)n1 (stereo not drawn) [Example 55, 2-(3-(5-amino-6-(pyridin-2-ylethynyl)pyrazin-2-yl)-4-methylphenyl)-3,3,3-trifluoro-2-hydroxypropanamide] | < 0.1 | < 0.1 |  |  | 
Cc1ccc(C(O)(C(N)=O)C(F)F)cc1-c1cnc(N)c(-c2cnn(C)n2)n1 (stereo not drawn) [Example 101, 2-(3-(5-amino-6-(2-methyl-2H-1,2,3-triazol-4-yl)pyrazin-2-yl)-4-methylphenyl)-3,3-difluoro-2-hydroxypropanamide] |  |  | < 0.1 | < 0.1 | 
COc1cnc(C#Cc2nc(-c3cc(C(O)(C(N)=O)C(F)(F)F)ccc3C)cnc2N)cn1 (stereo not drawn) [Example 67, 2-(3-(5-amino-6-((5-methoxypyrazin-2-yl)ethynyl)pyrazin-2-yl)-4-methylphenyl)-3,3,3-trifluoro-2-hydroxypropanamide] | < 0.1 | < 0.1 |  |  | 
Cc1ccc(C(O)(C(N)=O)C(F)(F)F)cc1-c1cnc(N)c(C(=O)NC(C)C)n1 (stereo not drawn) [Example 5, 3-Amino-6-(5-(3-amino-1,1,1-trifluoro-2-hydroxy-3-oxopropan-2-yl)-2-methylphenyl)-N-isopropylpyrazine-2-carboxamide trifluoroacetate] |  |  |  |  | IC50 [1, 7]: < 0.1 µM; IC50 [2, 8]: < 0.1 µM
Cc1ccc(C(O)(C(N)=O)C(F)(F)F)cc1-c1cnc(N)c(C#CC(C)(O)C(C)C)n1 (stereo not drawn) [Example 62, 2-(3-(5-amino-6-(3-hydroxy-3,4-dimethylpent-1-ynyl)pyrazin-2-yl)-4-methylphenyl)-3,3,3-trifluoro-2-hydroxypropanamide] | < 0.1 | < 0.1 |  |  | 
Cc1ccc(C(O)(C(N)=O)C(F)(F)F)cc1-c1cnc(N)c(N2CCN(C(=O)c3ccco3)CC2)n1 (stereo not drawn) [Example 127, 2-(3-(5-amino-6-(4-(furan-2-carbonyl)piperazin-1-yl)pyrazin-2-yl)-4-methylphenyl)-3,3,3-trifluoro-2-hydroxypropanamide trifluoroacetate] |  |  |  |  | IC50 [1]: < 0.1 µM; IC50 [2]: < 0.1 µM
Cc1ccc(C(O)(C(=O)N(C)C)C(F)(F)F)cc1-c1cnc(N)c(-n2cncn2)n1 (stereo not drawn) [Example 95, 2-(3-(5-Amino-6-(1H-1,2,4-triazol-1-yl)pyrazin-2-yl)-4-methylphenyl)-3,3,3-trifluoro-2-hydroxy-N,N-dimethylpropanamide trifluoroacetate] |  |  | 0.1 to 0.5 | 0.1 to 0.5 | 
CCNC(=O)c1nc(-c2cc(C(O)(C(N)=O)C(F)(F)F)ccc2C)cnc1N (stereo not drawn) [Example 7, 3-Amino-6-(5-(3-amino-1,1,1-trifluoro-2-hydroxy-3-oxopropan-2-yl)-2-methylphenyl)-N-ethylpyrazine-2-carboxamide trifluoroacetate] |  |  |  |  | IC50 [1, 7]: < 0.1 µM; IC50 [2, 8]: < 0.1 µM
Cc1cnc(C#Cc2nc(-c3cc(C(O)(C(N)=O)C(F)(F)F)ccc3C)cnc2N)cn1 (stereo not drawn) [Example 66, 2-(3-(5-amino-6-((5-methylpyrazin-2-yl)ethynyl)pyrazin-2-yl)-4-methylphenyl)-3,3,3-trifluoro-2-hydroxypropanamide] | < 0.1 | < 0.1 |  |  | 
Cc1ccc(C(O)(C(N)=O)C(F)(F)F)cc1-c1cnc(N)c(C(=O)NCC(C)(C)O)n1 (stereo not drawn) [Example 1, 3-Amino-6-(5-(3-amino-1,1,1-trifluoro-2-hydroxy-3-oxopropan-2-yl)-2-methylphenyl)-N-(2-hydroxy-2-methylpropyl)pyrazine-2-carboxamide] |  |  |  |  | IC50 [1, 7]: < 0.1 µM; IC50 [2, 8]: < 0.1 µM
Cc1ccc(C(O)(C(N)=O)C(F)(F)F)cc1-c1cnc(N)c(-n2cccn2)n1 (stereo not drawn) [Example 93, 2-(3-(5-Amino-6-(1H-pyrazol-1-yl)pyrazin-2-yl)-4-methylphenyl)-3,3,3-trifluoro-2-hydroxypropanamide] |  |  | < 0.1 | < 0.1 | 
Cc1ccc(C(O)(C(N)=O)C(F)(F)F)cc1-c1cnc(N)c(C2CC(C(=O)NC(C)C)C2)n1 (single isomer, unassigned) [Example 111, 3-(3-Amino-6-(5-(3-amino-1,1,1-trifluoro-2-hydroxy-3-oxopropan-2-yl)-2-methylphenyl)pyrazin-2-yl)-N-isopropylcyclobutane-1-carboxamide] |  |  |  |  | IC50 ([2]; Table A4, scintillation proximity assay, recombinant human PI3Kδ): 0.1 to 0.5 µM

Further lines, with some results ahead:

IC50 [1, 3] [µM] | IC50 [2, 4] [µM] | IC50 [1, 5] [µM] | IC50 [2, 6] [µM] | SMILES | also measured
< 0.1 | < 0.1 |  |  | COc1cc(C#Cc2nc(-c3cc(C(O)(C(N)=O)C(F)(F)F)ccc3C)cnc2N)cc(OC)c1 (stereo not drawn) [Example 60, 2-(3-(5-amino-6-((3,5-dimethoxyphenyl)ethynyl)pyrazin-2-yl)-4-methylphenyl)-3,3,3-trifluoro-2-hydroxypropanamide] | 
 |  | < 0.1 | < 0.1 | Cc1ccc(C(O)(CNC=O)C(F)(F)F)cc1-c1cnc(N)c(-c2cnc(C3CC3)s2)n1 (stereo not drawn) [Example 102, N-(2-(3-(5-amino-6-(2-cyclopropylthiazol-5-yl)pyrazin-2-yl)-4-methylphenyl)-3,3,3-trifluoro-2-hydroxypropyl)formamide trifluoroacetate] | 
< 0.1 | < 0.1 |  |  | Cc1ccc(C(O)(C(N)=O)C(F)(F)F)cc1-c1cnc(N)c(C#Cc2cn3ccnc3cn2)n1 (stereo not drawn) [Example 68, 2-(3-(5-amino-6-(imidazo[1,2-a]pyrazin-6-ylethynyl)pyrazin-2-yl)-4-methylphenyl)-3,3,3-trifluoro-2-hydroxypropanamide] | 
 |  | < 0.1 | < 0.1 | CNC(=O)C(O)(c1ccc(C)c(-c2cnc(N)c(-n3cncn3)n2)c1)C(F)(F)F (stereo not drawn) [Example 94, 2-(3-(5-Amino-6-(1H-1,2,4-triazol-1-yl)pyrazin-2-yl)-4-methylphenyl)-3,3,3-trifluoro-2-hydroxy-N-methylpropanamide trifluoroacetate] | 
 |  | < 0.1 | < 0.1 | Cc1ccc(C(O)(C(N)=O)C(F)F)cc1-c1cnc(N)c(-c2ccnn2C)n1 (stereo not drawn) [Example 98, 2-(3-(5-Amino-6-(1-methyl-1H-pyrazol-5-yl)pyrazin-2-yl)-4-methylphenyl)-3,3-difluoro-2-hydroxypropanamide] | 
